Measured values taken from ChEMBL document CHEMBL3885881, “DrugMatrix”.

Species on record: Rattus norvegicus
Experiment: DrugMatrix - Regimen: Daily Repeat
Type: toxicity, organism-based, Sprague-Dawley
Design: regimen Daily Repeat, gender Male, age 6-8 weeks
Settings: in vivo, po, route oral GAVAGE, […]; for ABSOLUTE BASOPHIL / ABSOLUTE EOSINOPHIL / ABSOLUTE LYMPHOCYTE / ABSOLUTE MONOCYTE / ABSOLUTE SEGMENTED NEUTROPHIL / BASOPHIL / EOSINOPHIL / ERYTHROCYTE COUNT / HEMATOCRIT / HEMOGLOBIN / LEUKOCYTE COUNT / LYMPHOCYTE / MEAN CORPUSCULAR HEMOGLOBIN / MEAN CORPUSCULAR HEMOGLOBIN CONCENTRATION / MEAN CORPUSCULAR VOLUME / MONOCYTE / NEUTROPHIL / NUCLEATED RED BLOOD CELLS / PLATELET COUNT: tissue Blood; for ALANINE AMINOTRANSFERASE / ALBUMIN / ALKALINE PHOSPHATASE / ASPARTATE AMINOTRANSFERASE / BLOOD UREA NITROGEN / CARBON DIOXIDE / CHLORIDE / CHOLESTEROL / CREATINE PHOSPHOKINASE / CREATININE / GLUCOSE / LACTATE DEHYDROGENASE / LIPASE / PHOSPHORUS / POTASSIUM / SODIUM / TOTAL BILIRUBIN / TOTAL PROTEIN / URIC ACID: tissue Plasma
[1] = 0 mg/kg, 72 h, dose level Control, time 3 day
[2] = 0 mg/kg, dose level Control, time 7 day
[3] = 30 mg/kg, 72 h, dose level Low, time 3 day

Structure (SMILES): S=C=Nc1cccc2ccccc12 [1-NAPHTHYLISOTHIOCYANATE]
- ABSOLUTE BASOPHIL [1]: 0 CELLS/uL
- ABSOLUTE EOSINOPHIL [1]: 47.5 CELLS/uL
- ABSOLUTE LYMPHOCYTE [1]: 9600.67 CELLS/uL
- ABSOLUTE MONOCYTE [1]: 195.5 CELLS/uL
- ABSOLUTE SEGMENTED NEUTROPHIL [1]: 839.67 CELLS/uL
- BASOPHIL [1]: 0%
- EOSINOPHIL [1]: 0.5%
- ERYTHROCYTE COUNT [1]: 5.26 x10E6/uL
- HEMATOCRIT [1]: 34.48%
- HEMOGLOBIN [1]: 12.77 G/DL
- LEUKOCYTE COUNT [1]: 10.68 x10E3/uL
- LYMPHOCYTE [1]: 89.67%
- MEAN CORPUSCULAR HEMOGLOBIN [1]: 24.3 pg
- MEAN CORPUSCULAR HEMOGLOBIN CONCENTRATION [1]: 37.05 G/DL
- MEAN CORPUSCULAR VOLUME [1]: 65.62 fL
- MONOCYTE [1]: 1.83%
- NEUTROPHIL [1]: 8%
- NUCLEATED RED BLOOD CELLS [1]: 0.17 /100WBC
- PLATELET COUNT [1]: 1038.67 x10E3/uL
- ALANINE AMINOTRANSFERASE [1]: 65.17 u/L
- ALBUMIN [1]: 4.2 G/DL
- ALKALINE PHOSPHATASE [1]: 377.5 u/L
- ASPARTATE AMINOTRANSFERASE [1]: 90.5 u/L
- BLOOD UREA NITROGEN [1]: 13.5 mg/dL
- CARBON DIOXIDE [1]: 31.17 mmol/L
- CHLORIDE [1]: 98.33 MEQ/L
- CHOLESTEROL [1]: 66.33 mg/dL
- CREATINE PHOSPHOKINASE [1]: 478.83 u/L
- CREATININE [1]: 0.19 mg/dL
- GLUCOSE [1]: 155.17 mg/dL
- LACTATE DEHYDROGENASE [1]: 107.5 u/L
- LIPASE [1]: 10.33 u/L
- PHOSPHORUS [1]: 9.25 mg/dL
- POTASSIUM [1]: 5.43 MEQ/L
- SODIUM [1]: 142.05 MEQ/L
- TOTAL BILIRUBIN [1]: 0.12 mg/dL
- TOTAL PROTEIN [1]: 5.95 G/DL
- URIC ACID [1]: 0.62 mg/dL
- ABSOLUTE BASOPHIL [2]: 0 CELLS/uL
- ABSOLUTE EOSINOPHIL [2]: 43.5 CELLS/uL
- ABSOLUTE LYMPHOCYTE [2]: 9369.83 CELLS/uL
- ABSOLUTE MONOCYTE [2]: 196.17 CELLS/uL
- ABSOLUTE SEGMENTED NEUTROPHIL [2]: 723.83 CELLS/uL
- BASOPHIL [2]: 0%
- EOSINOPHIL [2]: 0.5%
- ERYTHROCYTE COUNT [2]: 5.09 x10E6/uL
- HEMATOCRIT [2]: 32.42%
- HEMOGLOBIN [2]: 13.1 G/DL
- LEUKOCYTE COUNT [2]: 10.33 x10E3/uL
- LYMPHOCYTE [2]: 90.83%
- MEAN CORPUSCULAR HEMOGLOBIN [2]: 25.75 pg
- MEAN CORPUSCULAR HEMOGLOBIN CONCENTRATION [2]: 40.43 G/DL
- MEAN CORPUSCULAR VOLUME [2]: 63.62 fL
- MONOCYTE [2]: 1.67%
- NEUTROPHIL [2]: 7%
- NUCLEATED RED BLOOD CELLS [2]: 0 /100WBC
- PLATELET COUNT [2]: 1106.5 x10E3/uL
- ALANINE AMINOTRANSFERASE [2]: 48.67 u/L
- ALBUMIN [2]: 4.13 G/DL
- ALKALINE PHOSPHATASE [2]: 275.17 u/L
- ASPARTATE AMINOTRANSFERASE [2]: 73.17 u/L
- BLOOD UREA NITROGEN [2]: 13.17 mg/dL
- CARBON DIOXIDE [2]: 27.5 mmol/L
- CHLORIDE [2]: 99.67 MEQ/L
- CHOLESTEROL [2]: 60.83 mg/dL
- CREATINE PHOSPHOKINASE [2]: 213 u/L
- CREATININE [2]: 0.2 mg/dL
- GLUCOSE [2]: 166.67 mg/dL
- LACTATE DEHYDROGENASE [2]: 94.5 u/L
- LIPASE [2]: 10.5 u/L
- PHOSPHORUS [2]: 9.98 mg/dL
- POTASSIUM [2]: 5.3 MEQ/L
- SODIUM [2]: 140.77 MEQ/L
- TOTAL BILIRUBIN [2]: 0.15 mg/dL
- TOTAL PROTEIN [2]: 5.88 G/DL
- URIC ACID [2]: 0.82 mg/dL
- ABSOLUTE BASOPHIL [3]: 0 CELLS/uL
- ABSOLUTE EOSINOPHIL [3]: 54.67 CELLS/uL
- ABSOLUTE LYMPHOCYTE [3]: 18655.83 CELLS/uL
- ABSOLUTE MONOCYTE [3]: 720.5 CELLS/uL
- ABSOLUTE SEGMENTED NEUTROPHIL [3]: 2902.33 CELLS/uL
- BASOPHIL [3]: 0%
- EOSINOPHIL [3]: 0.33%
- ERYTHROCYTE COUNT [3]: 6.41 x10E6/uL
- HEMATOCRIT [3]: 39.98%
- HEMOGLOBIN [3]: 14.27 G/DL
- LEUKOCYTE COUNT [3]: 22.33 x10E3/uL
- LYMPHOCYTE [3]: 84.17%
- MEAN CORPUSCULAR HEMOGLOBIN [3]: 22.4 pg
- MEAN CORPUSCULAR HEMOGLOBIN CONCENTRATION [3]: 35.92 G/DL
- MEAN CORPUSCULAR VOLUME [3]: 62.38 fL
- MONOCYTE [3]: 3.17%
- NEUTROPHIL [3]: 12.33%
- NUCLEATED RED BLOOD CELLS [3]: 0 /100WBC
- PLATELET COUNT [3]: 844.83 x10E3/uL
- ALANINE AMINOTRANSFERASE [3]: 264.83 u/L
- ALBUMIN [3]: 3.62 G/DL
- ALKALINE PHOSPHATASE [3]: 660.67 u/L
- ASPARTATE AMINOTRANSFERASE [3]: 415.67 u/L
- BLOOD UREA NITROGEN [3]: 12.67 mg/dL
- CARBON DIOXIDE [3]: 28.83 mmol/L
- CHLORIDE [3]: 98 MEQ/L
- CHOLESTEROL [3]: 282.33 mg/dL
- CREATINE PHOSPHOKINASE [3]: 281.83 u/L
- CREATININE [3]: 0.18 mg/dL
- GLUCOSE [3]: 117.33 mg/dL
- LACTATE DEHYDROGENASE [3]: 160.33 u/L
- LIPASE [3]: 11.33 u/L
- PHOSPHORUS [3]: 9.08 mg/dL
- POTASSIUM [3]: 6.45 MEQ/L
- SODIUM [3]: 141.7 MEQ/L
- TOTAL BILIRUBIN [3]: 3.02 mg/dL
- TOTAL PROTEIN [3]: 6.22 G/DL
- URIC ACID [3]: 0.85 mg/dL
